One experiment deals with T1, GPR39 (NIT-1 cells) (Mus musculus, UniProt Q5U431).
T1 construct: NIT-1 cells endogenously expressing GPR39; endogenous in cells; host or cells: NIT-1 (ATCC CRL-2055)
T1 sequence (Q5U431 1-456): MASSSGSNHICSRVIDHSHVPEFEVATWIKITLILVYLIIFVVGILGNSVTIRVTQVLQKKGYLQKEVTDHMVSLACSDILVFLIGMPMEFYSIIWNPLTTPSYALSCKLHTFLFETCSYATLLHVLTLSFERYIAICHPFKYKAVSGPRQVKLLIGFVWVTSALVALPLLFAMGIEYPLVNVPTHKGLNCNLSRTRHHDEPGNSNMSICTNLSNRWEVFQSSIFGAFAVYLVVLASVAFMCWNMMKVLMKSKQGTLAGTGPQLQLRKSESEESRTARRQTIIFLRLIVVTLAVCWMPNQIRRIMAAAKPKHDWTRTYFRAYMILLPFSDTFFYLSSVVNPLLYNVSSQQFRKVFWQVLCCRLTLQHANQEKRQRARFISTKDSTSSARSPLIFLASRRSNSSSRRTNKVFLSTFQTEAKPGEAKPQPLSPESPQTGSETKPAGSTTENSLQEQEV
Description: IP1 assay in NIT-1 cells endogenously expressing GPR39. Type of experiment: cell-based. The following applies: for Emax: read-out: Emax relative to the 100% efficacy reference AZ1395. The text has this: (§1) Full length human (AF034633), rat (DM091294) and mouse (BC085285) GPR39 (GeneArt–Life Technologies, Carlsbad, CA) were subcloned into the pIRESneo3 vector (Clontech, Mountain View, CA). The resulting expression vectors hGPR39-, rGPR39- and mGPR39-pIRESneo3 were transfected into HEK293s cells (ATCC CRL-1573) using Lipofectamine 2000 (Life Technologies). Individual clones were isolated using flow cytometry with a FACSVantage SE DIVA (Becton Dickinson, Franklin Lakes, NJ) and clones were chosen based on responses to Zn^2+ measured in a cAMP assay (see below). […] HEK293s-derived cell lines were cultured at 37°C, 10% CO2 and 95% humidity in DMEM supplemented with 10% FBS and 600 μg/ml Geneticin (Life Technologies). The mouse pancreas epithelial cell line NIT-1 (ATCC CRL-2055) with endogenous expression of GPR39 was cultured at 37°C, 5% CO2, and 95% humidity in Ham´s F12 (Life Technologies) supplemented with 10% FBS.
IP1 assays were performed using IP-One Tb kits (CisBio). IP1 production was detected by HTRF as described above. Buffers and reagents were according to manufacturers’ protocols except LiCl concentrations in stimulation buffer which were 50 mM in assays employing HEK293s-hGPR39 cells and 20 mM in assays using NIT-1 cells. For assays using HEK293s-hGPR39 cells, 12,500 cells per well were dispensed into small-volume 384-well plates (Greiner) and IP1 production was stimulated in the presence of compounds for 30 min at 37 °C in a total volume of 20 μl. For assays using NIT-1 cells, 25,000 cells per well were seeded into poly-D-lysine coated 384-well plates (Becton-Dickinson) and cultured in Ham´s F12 medium with 10% FBS. After 48 h, cells were washed with stimulation buffer and IP1 production stimulated in the presence of compounds for 45 min at 37 °C in a total volume of 60 μl.
(§2) Concentration response data were fitted with a four parameter logistic fit using Eq 1, y=A+((B−A)/1+((C/x)^D))) (1) where A is no activation, B is full activation, C is the EC50 and D is the Hill slope.

The target in the next experiment is T2, GPR39 (Homo sapiens, UniProt O43194).
T2 sequence (O43194 1-453): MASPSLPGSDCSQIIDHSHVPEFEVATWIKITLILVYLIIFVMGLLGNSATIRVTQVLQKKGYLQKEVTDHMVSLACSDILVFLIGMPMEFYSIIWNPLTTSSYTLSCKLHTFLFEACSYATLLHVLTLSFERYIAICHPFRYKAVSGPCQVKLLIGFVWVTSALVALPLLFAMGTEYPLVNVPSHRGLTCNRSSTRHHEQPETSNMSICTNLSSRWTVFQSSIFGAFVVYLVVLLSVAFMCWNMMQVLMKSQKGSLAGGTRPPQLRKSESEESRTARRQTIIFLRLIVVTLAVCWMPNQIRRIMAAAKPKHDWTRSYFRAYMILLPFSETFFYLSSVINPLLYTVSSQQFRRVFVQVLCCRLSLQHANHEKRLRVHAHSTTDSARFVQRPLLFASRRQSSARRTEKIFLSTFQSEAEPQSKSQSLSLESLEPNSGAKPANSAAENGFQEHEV
Description: cAMP assay (HTRF), HEK293s-hGPR39 cells. In kind it is cell-based. Details: Full length human (AF034633), rat (DM091294) and mouse (BC085285) GPR39; expressed in transfected cells; host or cells: HEK293s (ATCC CRL-1573), pIRESneo3 vector, selected clones. The note with it: for Efficacy at 33 μM: AZ1395 100% reference.
Description: as §1
Measurements of cAMP production were performed using homogeneous time resolved fluorescence (HTRF) cAMP dynamic kits (CisBio, Codolet, France). All buffers and reagents were according to manufacturer’s protocol. In short, 0.1 μl of compounds in DMSO were added to small-volume 384-well plates (Greiner, Frickenhausen, Germany). 12,000 (5 μl) cells in Hank’s balanced salt solution (HBSS) (Life Technologies) and 20 mM HEPES (pH7.4; Life Technologies) were added per well. The production of cAMP was stimulated for 75 min at 37°C by addition of 5 μl 3-isobutyl-1-methylxanthine (0.375 mM final concentration; Sigma-Aldrich, St Louis, MO) and ZnCl2 (0 to 30 μM; Sigma). The reaction was stopped by addition of 5 μl cAMP-d2 and 5 μl anti-cAMP cryptate. The cAMP production was detected by HTRF (λex = 340 nm, λem = 665 and 615 nm) using a Pherastar (BMG Labtech, Ortenberg, Germany).
as §2
(In general: Changes in cAMP serve as a functional read-out for many G protein-coupled receptors.)

Where [1] appears, read: absence (w/o) of Zn^2+, read-out: EC50.
Where [2] appears, read: presence of 5 μM Zn^2+, read-out: EC50.
Where [3] appears, read: presence of 5 μM Zn^2+, read-out: pEC50 ± SD (converted).
The mark [4] stands for this setting: Zn^2+ by itself, read-out: EC50.

The results in this text go back to publication PMC4697807, “Novel Zn^2+ Modulated GPR39 Receptor Agonists Do Not Drive Acute Insulin Secretion in Rodents” (PLoS ONE, 2015).

Like-named read-outs stand apart in the source and are kept apart here.

One may read the Emax as the size of the effect at its maximum, as opposed to the concentration needed.

Consider `N#Cc1ccc(OCCn2ccnc2)c(OCCn2ccnc2)c1` [AZ1395, 3,4-bis-(2-imidazol-1-ylethoxy)-benzonitrile], for which the figures for the “Efficacy at 33 μM” value on GPR39 (NIT-1 cells) (absence (w/o) of Zn^2+), on GPR39 (NIT-1 cells) (presence of 5 μM Zn^2+) and on GPR39 (absence (w/o) of Zn^2+) were 0%, 100% and 81%, respectively. In addition, the EC50 was over 33 µM on GPR39 (NIT-1 cells) (setting [1]), over 33 µM on GPR39 (NIT-1 cells) (setting [2]), over 33 µM on GPR39 (setting [1]) and 0.49 µM at GPR39 (setting [2]).
For the compound `Cc1nc2c(C(=O)O)cnn2c(O)c1Cc1ccc(Cl)cc1` [AZ4237, 6-[(4-chlorophenyl)methyl]-7-hydroxy-5-methyl-pyrazolo[1,5-a]pyrimidine-3-carboxylic acid], the figures for the “Efficacy at 33 μM” value at GPR39 (NIT-1 cells) (absence (w/o) of Zn^2+) and at GPR39 (absence (w/o) of Zn^2+) were 8% and 49%, respectively. The EC50 on GPR39 (NIT-1 cells) (setting [1]) was over 33 µM; at GPR39 (NIT-1 cells) (setting [3]), 0.24 µM; on GPR39 (setting [1]), over 33 µM; on GPR39 (setting [3]) it was 0.389 µM. Moreover, the Emax at GPR39 (NIT-1 cells) (presence of 5 μM Zn^2+) is 50%.
Turning to `Cc1nc(-c2nc3c(c(=O)[nH]2)CN(C(=O)c2cccc(Cl)c2F)CC3)cs1` [AZ7914, 6-(3-chloro-2-fluoro-benzoyl)-2-(2-methylthiazol-4-yl)-3,5,7,8-tetrahydropyrido-[4,3-d]pyrimidin-4-one], the “Efficacy at 33 μM” value is 9% at GPR39 (NIT-1 cells) (absence (w/o) of Zn^2+) and 21% on GPR39 (absence (w/o) of Zn^2+). Moreover, the EC50 at GPR39 (NIT-1 cells) (setting [1]) is over 33 µM; at GPR39 (NIT-1 cells) (setting [2]), 0.65 µM; on GPR39 (setting [1]), over 33 µM; at GPR39 (setting [3]), 2.29 µM. Further, at GPR39 (NIT-1 cells) (presence of 5 μM Zn^2+), the Emax was 47%.
In the case of `[Zn+2]` [Zn^2+], on GPR39 (NIT-1 cells) (Zn^2+ by itself), the “Efficacy at 33 μM” value is on record as 0% and the agonistic effects result is listed as “no agonistic effects”. For the same compound, on GPR39 (NIT-1 cells) (setting [4]), the EC50 is over 33 µM. Also, at GPR39 (Zn^2+ by itself), the “pEC50 ± SD” value is recorded as “(4.92 ± 0.13)”. The EC50 at GPR39 (setting [4]) is 12 µM.
